This is an account of results in US20050032863A1, “Method of treating or preventing central nervous system disorders with compounds having selectivity for the alpha 3 subunit of the benzodiazepine receptor” (priority 2003, published 2005).

The target of data set [1] is T1, recombinant rat α4β2γ2 GABAA receptors (Rattus norvegicus, UniProt P28471).
T1 construct: expressed in transfected cells; host or cells: HEK 293
Put plainly: Whole-cell patch-clamp, modulation of GABA (EC20)-induced currents in transfected HEK 293 cells, α4β2γ2. In kind it is cell-based. The procedure: For electrophysiological recording HEK-293 cells were passaged and replated on 12-mm glass coverslips located in 9.6-cm plastic dishes filled with 10 ml of Minimum Essential Medium (MEM, Gibco) supplemented with 158 mg/l sodium bicarbonate, 2 mM glutamine (Gibco), 100 U/ml penicillin-streptomycin (Gibco), and 10% foetal calf serum (Gibco). Cultures were maintained at 37° C. in a humidified […]/5% CO2 atmosphere for 2-3 days.
Transfection with recombinant rat GABAA receptors was carried out as described in detail (Korpi and Lüddens, 1993, Lüddens and Korpi, 1995b). Briefly, HEK 293 cells were transfected in triple combinations using the phosphate precipitation method with rat GABAA receptor cDNAs in eukaryotic expression vectors (Pritchett, 1990) for the α, β and γ subunits. For optimal receptor expression, final concentrations (μg vector DNA per 9.6 cm tissue culture plate) were: α1, 2; α2 4.8; α3, 1.2; α4, 10; α5, 0.8; β2, 0.4; and γ2S, 0.3. The γ2S variant is abbreviated γ2 in the remainder of the text. To identify transfected cells all subunit combinations were co-transfected with 1 μg per plate of pNI-EGFP.
Two days after transfection single coverslips containing HEK 293 cells were placed in a recording chamber mounted on the movable stage of a fluorescence microscope (Olympus IX70) and perfused with a defined saline solution containing (in mM): 130 NaCl, 5.4 KCl, 2 CaCl2, 2 MgSO4, 10 glucose, 5 sucrose, and 10 HEPES (free acid), pH adjusted to 7.35 with about 35 mM NaOH. Transfected cells were identified by their green fluorescence due to the expression of the pNI-EGFP vector and ligand-mediated membrane currents of these cells were studied in the whole-cell configuration of the patch-clamp technique (Hamil et al., 1981). […]
Seal resistances >1 GΩ were routinely obtained by applying gentle suction to the pipettes. Membrane rupture was monitored electrically as an increase in capacity. […]
In all cells recorded the presence of the γ2 subunit in the heteropentamere was monitored by the application of 1 μM zolpidem plus the EC20 of GABA before testing the experimental drugs. […]
Background: In patch-clamp work, channel activity is measured electrically.

For data set [2], the system named is male Wistar rats. Description: Rat forced swim test. In kind it is in vivo. The procedure:
All animals were treated with verum or vehicle three times: shortly after the habituation session (23 h), 5 and 1 h prior to testing. All drugs were administered orally with an application volume of 1 ml/kg.
The animals were tested in a glass tank (23×30 cm, height 40 cm) filled to a depth of 28 cm with water at 22° C. (the animals could not touch the bottom). The glass tank was illuminated indirectly and was surrounded by dark brown shading walls (distance from the tank 20 cm) to prevent the view on the experimenter. The experiments were performed between 14:00 and 17:00 hours and the method was in general performed as described (Porsolt et al., 1979; Lucki, 1997).
On the first experimental day, rats were gently placed in the water for a 15 min period of habituation. On removal from the water, they were placed in a standard plexiglass box, the floor covered with paper towels, under an infrared heater for 30 min to dry. The next day, they were once more placed gently in the glass tank and observed for 5 min. The behaviour of the animals was video-taped.
Following the experiment the video tapes were analysed manually and the duration of the following behaviours was recorded: Immobility: floating and making only those movements necessary to keep the nose above the water. […] Climbing: when rats strongly move their forepaws in and out of the water, usually against the walls.

Data set [3] deals with female Wistar rats, MK-801-induced stereotypies, hyperactivity and ataxia. Description: MK-801-induced behaviour, rat model of psychosis (Example 1). The settings on record: MK-801 0.2 mg/kg i.p. In kind it is in vivo. The procedure: The behaviour induced by the NMDA antagonist MK-801 is generally accepted as a rat model of psychosis. MK-801 induces stereotypies, hyperactivity and ataxia in rats after intraperitoneal administration.
Locomotor activity of the rats is recorded by the MotiTest Apparatus (TSE, Bad Homburg, Germany). The test area consisted of a squared arena ([…] with protective plexiglass walls (20 cm of height) where rats could freely move. Horizontal movements were recorded by 32 infrared photocells arranged along the bottom of each wall of the arena. Vertical movements (rearings) were recorded by a horizontal row of 32 infrared photocells 12 cm above the floor. The following parameters are measured by the computer program “ActiMot” (TSE, Bad Homburg, Germany): • active time [s] and total distance travelled [m]
Stereotypies, divided into stereotyped sniffing and other stereotypies, and ataxia are scored by the experimenter every five minutes for one hour (12 intervals) according to the method described by Andiné et al. (1999). The scores of the 12 intervals are added for each parameter.
The day of experiment the female rats are placed in the laboratory and receive the test compound, the reference substance or vehicle at the appropriate time prior to test. MK-801 0.2 mg/kg is intraperitoneally administered 10 minutes prior to test.
At the beginning of the test the rats are placed in the centre of the squared arena of the MotiTest apparatus. Behaviour of the rats is recorded for one hour. After each run animals are removed and the boxes thoroughly cleaned and dried.

The test system of data set [4] is locomotor activity. The settings on record: open field test and different animal models of anxiety; cited from earlier work.
The subject of data set [5] is serotonine transporters. Put plainly: Uptake of serotonine in a synaptosomal preparation. In kind it is biochemical.
Setting [6] is: 10 and 30 mg/kg p.o., 23, 5 and 1 h prior to testing.
Where [7] appears, read: 30 mg/kg p.o. 1 h prior to test.

Entries after “also recorded” stand apart in the source; their conditions may differ.

T1 sequence (P28471 36-552): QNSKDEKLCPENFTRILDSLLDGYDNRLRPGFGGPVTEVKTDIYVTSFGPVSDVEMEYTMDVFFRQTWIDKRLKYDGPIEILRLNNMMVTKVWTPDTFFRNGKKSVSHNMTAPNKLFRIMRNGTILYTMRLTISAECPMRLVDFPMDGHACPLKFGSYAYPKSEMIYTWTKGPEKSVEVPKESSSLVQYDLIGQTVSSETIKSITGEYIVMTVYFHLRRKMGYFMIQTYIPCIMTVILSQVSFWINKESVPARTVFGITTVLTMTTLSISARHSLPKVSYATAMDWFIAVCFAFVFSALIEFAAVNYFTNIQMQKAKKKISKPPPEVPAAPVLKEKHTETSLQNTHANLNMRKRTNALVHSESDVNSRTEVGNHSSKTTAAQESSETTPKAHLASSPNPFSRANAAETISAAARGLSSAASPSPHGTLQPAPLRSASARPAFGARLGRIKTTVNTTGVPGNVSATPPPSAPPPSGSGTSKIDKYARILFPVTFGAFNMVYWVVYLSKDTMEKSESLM

Turning to `O=C1N=C(N2CCCCC2)CN1c1ccc(Cl)cc1` [ELB139, 1-(4-chlorophenyl)-4-piperidinoimidazolin-2-one], the “modulation of GABA-induced currents (in words)” value in data set [1] (α4-containing receptors, diazepam up to 1 μM, ELB139 at all concentrations tested) is “unaffected; also recorded: not active”. Besides, the EC50 in data set [1] (α4β2γ2, applied with approximate GABA EC20, read-out: EC50 (ELB139)) was > 30 µM. For the same molecule, in data set [2] (30 mg/kg p.o.), the “activity following the return to the homecage (subjective observation)” value is on record as “moderate hypoactivity” and the climbing time result is “slight but not significant decrease”. Also, the duration of swimming entry in data set [2] (30 mg/kg p.o., 23, 5 and 1 h prior to testing) is recorded as “increased”. Also, in data set [2] (10 and 30 mg/kg p.o.), the tolerability entry is on record as “well tolerated”. In addition, in data set [2] (setting [6]), the climbing behaviour entry was “not changed” and the time spent immobile result is reported as “had no effect”. In data set [3] (setting [7]), the MK-801-induced ataxia result is reported as “significantly reversed”, the MK-801-induced other stereotypies entry is given as “significantly reversed”, the MK-801-induced stereotyped sniffing result was “significantly reversed” and the MK-801-stimulated activity result is “did not reduce”. Besides, the “total distance travelled increased by MK-801” value in data set [3] (setting [7]) is on record as “distinctly reduced”. The “all parameters induced by MK-801” value in data set [3] (60 mg/kg p.o. 1 h prior to test) was “significantly reduced all parameters”. In addition, the locomotor activity entry in data set [4] is “did not show a significant reduction”. In addition, the uptake of serotonine entry in data set [5] was “no effect”.

What is called EC50 is the concentration giving half of the maximal effect.
